Assay results taken from ChEMBL document CHEMBL3856202, “Synthesis and screening of triazolopyrimidine scaffold as multi-functional agents for Alzheimer's disease therapies” (Eur J Med Chem, 2016).
Active and inactive are the calls of the source. The calls are words filed in the database; no cut-off is given here.

Columns and labels:
Acetylcholinesterase = Acetylcholinesterase (Electrophorus electricus, UniProt O42275)
Description: Inhibition of electric eel AChE preincubated for 5 mins followed by addition of acetylthiocholine iodide as substrate measured after 2 mins by Ellman's method

Cholinesterase = Cholinesterase (Equus caballus, UniProt P81908)
Description: Inhibition of equine serum BuChE preincubated for 5 mins followed by addition of butyrylthiocholine iodide as substrate measured after 2 mins by Ellman's method

[1] = molecular target: Amyloid-beta precursor protein (Homo sapiens) (UniProt P05067); details: at 25 µM
Description: Inhibition of amyloid beta (1 to 42) (unknown origin) self-aggregation at 25 uM measured after 48 hrs by ThT-assay

[2] = molecular target: Cholinesterase (Equus caballus) (UniProt P81908); assay: Potency index, ratio of IC50 donepezil to IC50 for test compound against equine serum BuChE
[3] = molecular target: Acetylcholinesterase (Electrophorus electricus) (UniProt O42275); assay: Potency index, ratio of IC50 for galantamine to IC50 for test compound against electric eel AChE
[4] = molecular target: Acetylcholinesterase (Electrophorus electricus) (UniProt O42275); details: at 12 to 42 nM
[5] = Neuroprotective activity in human SH-SY5Y cells assessed as reduction of amyloid beta (1 to 42)-induced neurotoxicity measured as cell viability at 5 to 25 uM preincubated 30 mins followed by amyloid beta (1 to 42) peptide addition for 24 hrs by MTT assay relative to control; assay type: functional
[6] = molecular target: Amyloid-beta precursor protein (Homo sapiens) (UniProt P05067); assay: Inhibition of amyloid beta (1 to 42) (unknown origin) aggregation assessed at 25 uM after 24 to 48 hrs by transmission electron microscopic analysis
SH-SY5Y [7] = assay: Neuroprotective activity in human SH-SY5Y cells assessed as reduction of H2O2-induced neurotoxicity measured as increase in cell viability at 1 to 20 uM incubated for 24 hrs with H2O2-challenge by MTT assay; assay type: functional, cell-based
SH-SY5Y [8] = assay: Neuroprotective activity in human SH-SY5Y cells assessed as reduction of amyloid beta (1 to 42)-induced neurotoxicity measured as morphological changes preincubated 30 mins followed by amyloid beta (1 to 42) peptide addition for 24 hrs by microscopy; assay type: functional, cell-based
[9] = molecular target: Acetylcholinesterase (Electrophorus electricus) (UniProt O42275); details: at 100 µM
Description: Inhibition of electric eel AChE-mediated amyloid beta (1 to 42) (unknown origin) co-aggregation at 100 uM measured after 48 hrs by ThT-assay

[10] = molecular target: Acetylcholinesterase (Electrophorus electricus) (UniProt O42275); assay: Potency index, ratio of IC50 for rivastigmine to IC50 for test compound against electric eel AChE
SH-SY5Y [11] = assay: Neuroprotective activity in human SH-SY5Y cells assessed as reduction of H2O2-induced neurotoxicity measured as morphological changes at 10 uM incubated for 24 hrs with H2O2-challenge by microscopy; assay type: functional, cell-based
[12] = molecular target: Acetylcholinesterase (Electrophorus electricus) (UniProt O42275); assay: Potency index, ratio of IC50 for tacrine to IC50 for test compound against electric eel AChE
[13] = Cytotoxicity against human SH-SY5Y cells assessed as cell viability at 1 to 50 uM measured after 24 hrs by MTT assay; assay type: toxicity, cell-based
SH-SY5Y [14] = assay: Neuroprotective activity in human SH-SY5Y cells assessed as reduction of amyloid beta (1 to 42)-induced neurotoxicity measured as cell viability preincubated 30 mins followed by amyloid beta (1 to 42) peptide addition for 24 hrs by MTT assay; assay type: functional, cell-based

Sequence of Amyloid-beta precursor protein (Homo sapiens) (P05067 whole entry): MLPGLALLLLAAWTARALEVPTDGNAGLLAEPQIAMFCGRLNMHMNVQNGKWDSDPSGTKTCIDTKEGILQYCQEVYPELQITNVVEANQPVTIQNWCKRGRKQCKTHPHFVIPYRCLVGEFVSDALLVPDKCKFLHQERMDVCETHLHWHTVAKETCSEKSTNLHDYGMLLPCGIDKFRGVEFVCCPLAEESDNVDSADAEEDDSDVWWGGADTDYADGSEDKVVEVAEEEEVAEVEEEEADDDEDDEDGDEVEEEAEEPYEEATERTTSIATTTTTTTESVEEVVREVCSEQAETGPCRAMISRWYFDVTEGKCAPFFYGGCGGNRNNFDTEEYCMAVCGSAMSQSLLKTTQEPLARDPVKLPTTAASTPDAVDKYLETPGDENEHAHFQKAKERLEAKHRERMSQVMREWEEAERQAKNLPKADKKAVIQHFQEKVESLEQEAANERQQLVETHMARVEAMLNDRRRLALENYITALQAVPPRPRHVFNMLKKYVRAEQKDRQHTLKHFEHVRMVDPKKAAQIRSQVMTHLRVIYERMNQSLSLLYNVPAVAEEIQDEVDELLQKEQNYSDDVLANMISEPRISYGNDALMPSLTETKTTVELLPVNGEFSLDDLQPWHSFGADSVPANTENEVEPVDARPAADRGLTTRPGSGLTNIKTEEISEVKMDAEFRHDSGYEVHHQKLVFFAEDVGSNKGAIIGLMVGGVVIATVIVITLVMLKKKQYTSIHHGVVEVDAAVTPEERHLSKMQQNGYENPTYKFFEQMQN
Sequence of Cholinesterase (P81908 whole entry): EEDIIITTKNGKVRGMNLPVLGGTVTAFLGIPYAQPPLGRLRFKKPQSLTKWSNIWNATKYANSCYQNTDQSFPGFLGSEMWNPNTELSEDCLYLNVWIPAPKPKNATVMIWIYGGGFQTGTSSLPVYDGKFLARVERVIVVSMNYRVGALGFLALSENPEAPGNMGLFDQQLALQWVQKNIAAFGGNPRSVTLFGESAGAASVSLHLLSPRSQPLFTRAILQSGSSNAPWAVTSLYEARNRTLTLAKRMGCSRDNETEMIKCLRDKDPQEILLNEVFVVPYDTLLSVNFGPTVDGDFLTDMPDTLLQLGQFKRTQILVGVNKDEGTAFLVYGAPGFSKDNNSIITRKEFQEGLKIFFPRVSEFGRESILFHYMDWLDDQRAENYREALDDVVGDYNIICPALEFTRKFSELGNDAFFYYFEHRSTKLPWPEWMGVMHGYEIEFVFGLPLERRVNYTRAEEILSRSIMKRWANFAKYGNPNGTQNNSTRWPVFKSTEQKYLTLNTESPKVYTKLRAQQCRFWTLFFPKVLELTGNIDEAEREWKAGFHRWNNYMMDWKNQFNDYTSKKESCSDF
Sequence of Acetylcholinesterase (Electrophorus electricus) (O42275 24-633 limits assumed): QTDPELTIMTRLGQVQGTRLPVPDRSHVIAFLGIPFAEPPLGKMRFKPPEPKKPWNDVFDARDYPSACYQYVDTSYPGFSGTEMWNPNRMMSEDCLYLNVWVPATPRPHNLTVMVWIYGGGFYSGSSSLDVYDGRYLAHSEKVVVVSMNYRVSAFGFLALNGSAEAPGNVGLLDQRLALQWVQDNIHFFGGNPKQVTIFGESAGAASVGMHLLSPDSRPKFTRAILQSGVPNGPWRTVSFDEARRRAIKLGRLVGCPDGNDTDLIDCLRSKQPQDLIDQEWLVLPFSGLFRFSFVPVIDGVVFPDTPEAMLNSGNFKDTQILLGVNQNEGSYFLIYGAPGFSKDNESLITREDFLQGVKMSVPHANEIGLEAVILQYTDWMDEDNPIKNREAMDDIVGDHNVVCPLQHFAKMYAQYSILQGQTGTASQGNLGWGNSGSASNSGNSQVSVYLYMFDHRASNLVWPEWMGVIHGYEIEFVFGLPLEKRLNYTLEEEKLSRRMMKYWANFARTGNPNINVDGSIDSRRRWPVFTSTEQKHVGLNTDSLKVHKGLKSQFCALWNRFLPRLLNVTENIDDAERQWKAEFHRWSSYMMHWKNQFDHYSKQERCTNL
Sequence of Acetylcholinesterase (O42275 whole entry): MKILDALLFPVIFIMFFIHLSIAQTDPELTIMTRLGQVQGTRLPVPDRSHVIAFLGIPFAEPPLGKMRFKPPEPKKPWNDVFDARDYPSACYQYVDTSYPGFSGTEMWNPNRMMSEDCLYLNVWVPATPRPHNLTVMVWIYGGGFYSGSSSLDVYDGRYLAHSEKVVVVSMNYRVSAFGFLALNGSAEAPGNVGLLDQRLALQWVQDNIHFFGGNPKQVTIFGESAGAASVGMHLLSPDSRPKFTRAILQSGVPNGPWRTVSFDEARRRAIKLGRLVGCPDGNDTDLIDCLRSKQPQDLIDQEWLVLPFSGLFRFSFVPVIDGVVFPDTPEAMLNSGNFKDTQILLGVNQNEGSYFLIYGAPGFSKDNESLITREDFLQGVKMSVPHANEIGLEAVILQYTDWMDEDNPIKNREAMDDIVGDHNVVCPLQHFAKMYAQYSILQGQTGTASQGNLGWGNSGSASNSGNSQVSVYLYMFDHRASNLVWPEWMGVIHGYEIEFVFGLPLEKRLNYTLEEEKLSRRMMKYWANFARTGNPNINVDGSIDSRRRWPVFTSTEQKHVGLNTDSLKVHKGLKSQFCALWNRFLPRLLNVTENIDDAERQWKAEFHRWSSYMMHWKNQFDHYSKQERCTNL
Sequence of Cholinesterase (Equus caballus) (P81908 whole entry): as the sequence (P81908 whole entry) above

| SMILES | IC50 (Acetylcholinesterase) [nM] | IC50 (Cholinesterase) [nM] | inhibition [1] [%] | Ratio IC50 [2] | Ratio IC50 [3] | inhibition [4] | Activity [5] | inhibition [6] | Activity (SH-SY5Y [7]) | Activity (SH-SY5Y [8]) | inhibition [9] [%] | Ratio IC50 [10] | Activity (SH-SY5Y [11]) | Ratio IC50 [12] | Activity [13] | Activity (SH-SY5Y [14]) |
| --- | --- | --- | --- | --- | --- | --- | --- | --- | --- | --- | --- | --- | --- | --- | --- | --- |
| CCOC(=O)c1cnc2ccc(OC)cc2c1N1CCN(c2ncccc2C#N)CC1 | 1100 | 1900 | 39.8 | – | – | – | – | – | – | – | – | – | – | – | – | – |
| CCOC(=O)c1cnc2ccc(C)cc2c1N1CCN(c2ncccc2C#N)CC1 | 3490 | 3000 | 27.3 | – | – | – | – | – | – | – | – | – | – | – | – | – |
| CCOC(=O)c1cnc2ccc(F)cc2c1N1CCN(c2cc(C)nc3ncnn23)CC1 | 42 | 510 | 72.9 | 14 | 74 | Active | 79 - 83% | Active | Active | Active | 80.5 | 106 | Active | 3.2 | Non-Toxic | Dose-dependent effect |
| CCOC(=O)c1cnc2ccc(C)cc2c1N1CCN(c2cc(C)nc3ncnn23)CC1 | 2640 | 4090 | 52.5 | – | – | – | – | – | – | – | 54.3 | – | – | – | – | – |
| CCOC(=O)c1cnc2ccc(OC)cc2c1N1CCN(c2cc(C)nc3ncnn23)CC1 | 760 | 2010 | 61.6 | – | – | – | 79 - 83% | Active | Active | Active | 68.7 | – | Active | – | Non-Toxic | Dose-dependent effect |
| Cc1cc(N2CCN(c3ncccc3C#N)CC2)n2ncnc2n1 | 1390 | 780 | 46.8 | – | – | – | – | – | – | – | 49.4 | – | – | – | – | – |
| CCOC(=O)c1cnc2c(F)cccc2c1N1CCN(c2ncccc2C#N)CC1 | 730 | 890 | 47.4 | – | – | – | – | – | – | – | 50.3 | – | – | – | – | – |
| CCOC(=O)c1cnc2c(F)cccc2c1N1CCN(c2cc(C)nc3ncnn23)CC1 | 97 | 180 | 64.2 | 5 | 32 | – | 79 - 83% | Active | Active | Active | 70.3 | 46 | Active | – | Non-Toxic | Dose-dependent effect |
| CCOC(=O)c1cnc2cc(C(F)(F)F)ccc2c1N1CCN(c2cc(C)nc3ncnn23)CC1 | 180 | 780 | 43.8 | – | – | – | – | – | – | – | 52 | – | – | – | – | – |
| CCOC(=O)c1cnc2cc(C(F)(F)F)ccc2c1N1CCN(c2ncccc2C#N)CC1 | 880 | 980 | 44.2 | – | – | – | – | – | – | – | 47.8 | – | – | – | – | – |
| CCOC(=O)c1cnc2ccc(F)cc2c1N1CCN(c2ncccc2C#N)CC1 | 580 | 1230 | 54.9 | – | – | – | – | – | – | – | 59 | – | – | – | – | – |
